The subject of assay [1] is A549 lung carcinoma cells. Nature of the assay: A549 assay, PGE2 content in supernatant by EIA. It counts as cell-based. Conditions: TNFalfa and IL-1beta induced 16 h, 30 min compound, then 10 μM arachidonic acid 30 min. Here is the method: A549 lung carcinoma cells, seeded at a density of 10,000 cells/well, were grown in 96 well tissue culture plates. TNFalfa (5 ng/ml) and […] (5 ng/ml) were added and the cells were incubated for 16 hours. Cells were washed in PBS and test compounds at the appropriate concentration in HBSS/0.1% BSA were added. After 30 minutes incubation with test compounds, 10 μM arachidonic acid was added and cells were further incubated for 30 minutes. Supernatant was collected and analyzed for PGE2 content by EIA according to manufacturer's instructions.

For assay [2], the target named is T1, recombinant, membrane-bound mPGES-1 (Homo sapiens, UniProt O14684).
T1 sequence (O14684 1-152): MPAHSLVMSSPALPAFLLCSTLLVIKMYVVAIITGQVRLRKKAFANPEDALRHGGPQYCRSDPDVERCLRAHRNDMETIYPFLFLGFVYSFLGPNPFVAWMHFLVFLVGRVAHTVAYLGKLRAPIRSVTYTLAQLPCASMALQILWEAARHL
Description: Thiobarbituric acid assay (TBA-MDA assay), inhibition of mPGES-1. It counts as biochemical. As to conditions: remaining PGH2 measured at 535 nm. From the text:
Malondialdehyde is a product of lipid peroxidation and reacts with thiobarbituric acid forming a red product that absorbs at 535 nm (W. G. Niehaus, Jr and B. Samuelsson, Eur. J. Biochem 6, 126 (1968). The extinction coefficient of the TBA-MDA conjugate is 1.56×10^5 M^−1 cm^−1 (E. D. Wills. Biochem. J. 113, 315 (1969).
The method used for detection of inhibition of mPGES-1 is based on the detection of the amount of remaining PGH2. This method was described more than 20 years ago by Basevich et al (Bioorg. Khim. 1983, 9(5), 658-665.
The assay used was a modified variant and used citric acid instead of the TCA-TBA-HCl reagent described in the original assay. In this assay recombinant, membrane-bound mPGES-1 was incubated with PGH2. The reaction was stopped by adding citric acid with a final pH of 3 and a large excess of FeCl2 (20 mM) to convert any remaining PGH2 into MDA and […]. TBA reagent was finally added (0.67%) and the samples were heated at 80° C. for 30 min. The absorbance of the conjugate was measured at 535 nm.
The product of mPGES-1 (PGE2) was not measured directly in this assay, but rather the remaining substrate (PGH2) indirectly by adding FeCl2 that converts PGH2 into […] and 12-HHT. As a positive control a known mPGES-1 inhibitor, MK-886, was used and the new inhibitors were compared with the inhibition of MK-886 (% of MK-886 inhibition).

From patent US20100324086A1, “COMPOUNDS AND METHODS” (Novasaid AB, priority 2008, published 2010) come the findings set out here.

The term EC50 denotes the concentration at which the effect is half-maximal. Low values mean a more potent agent, high ones a less potent agent. The IC50 is the concentration at which inhibition is half-maximal. `C[C@H](NC(=O)c1cccc(NC(=O)c2ccccc2I)c1)c1cccc2ccccc12` [Compound 79, 2-Iodo-N-[3-((S)-1-naphthalen-1-yl-ethylcarbamoyl)-phenyl]-benzamide] showed an EC50 in assay [1] (Homo sapiens, A549) of 1.23 µM. In addition, in assay [2], the half-inhibitory concentration (IC50) came to 0.2 µM.
As to `O=C(Nc1ccc(C(F)(F)F)cn1)c1cccc(NC(=O)c2ccccc2C(F)(F)F)c1` [Compound 153, 3-[2-(Trifluoromethyl)-benzoylamino]-N-(5-trifluoromethyl-pyridine-2-yl)-benzamide], the EC50 in assay [1] (Homo sapiens, A549) worked out at 0.5 µM. In addition, the half-maximal inhibitory concentration (IC50) in assay [2] worked out at 0.049 µM.
The like results for `C[C@H](NC(=O)c1cccc(NC(=O)c2ccccc2C(F)(F)F)c1)c1cccc2ccccc12` [Compound 77, N-[3-((S)-1-Naphthalen-1-yl-ethylcarbamoyl)-phenyl]-2-trifluoromethyl-benzamide] were, in that order, 0.4 µM and 0.29 µM.
The corresponding values for `C[C@@H](NC(=O)c1cccc(NC(=O)c2ccccc2C(F)(F)F)c1)c1cccc2ccccc12` [Compound 93, N-[3-((R)-1-Naphthalen-1-yl-ethylcarbamoyl)-phenyl]-2-trifluoromethyl-benzamide] are 0.45 µM and 0.12 µM.
The like results for `O=C(NCc1cccc2ccccc12)c1cccc(NC(=O)c2ccccc2Cl)c1` [Compound 117, 2-Chloro-N-{3-[(naphthalen-1-ylmethyl)-carbamoyl]-phenyl}-benzamide] were, in that order, 1.48 µM and 0.26 µM.
The compound `O=C(Nc1cccc2cccnc12)c1cccc(NC(=O)c2ccccc2Cl)c1` [Compound 8, 3-(2-Chloro-benzoylamino)-N-(quinolin-8-yl-)-benzamide] yielded an EC50 in assay [1] of 2.96 µM. The IC50 in assay [2] is 0.8 µM.
`O=C(NCc1cccc2ccccc12)c1cccc(NC(=O)c2ccccc2F)c1` [Compound 104, 2-Fluoro-N-{3-[(naphthalen-1-ylmethyl)-carbamoyl]-phenyl}-benzamide] displayed an EC50 in assay [1] (Homo sapiens, A549) of 0.64 µM. Besides, the IC50 in assay [2] is 1.1 µM.
For the compound `O=C(NC1CCc2ccccc21)c1cccc(NC(=O)c2ccccc2Cl)c1` (centres unmarked) [Compound 34, 3-(2-Chloro-benzoylamino)-N-indan-1-yl-benzamide], a half-maximal effect in assay [1] (Homo sapiens, A549) (EC50) was put at 5.4 µM. In assay [2], the half-maximal inhibitory concentration (IC50) was determined as 0.72 µM.
Consider `Cc1ccccc1C(=O)Nc1cccc(C(=O)N[C@@H](C)c2cccc3ccccc23)c1` [Compound 78, 2-Methyl-N-[3-((S)-1-naphthalen-1-yl-ethylcarbamoyl)-phenyl]-benzamide], for which the IC50 in assay [2] was determined as 0.69 µM.
